From patent US7772241B2, “Variolin derivatives and their use as antitumor agents” (Pharma Mar S.A., priority 2001, dated 2010)
Read-outs that look alike come from different tables or passages of the source. Each block holds one molecule with its values, some of them ahead of it.

What was measured:
[1] = tested on: IGROV-ET; assay: Inhibition of cells growth by colorimetric (SRB) assay, IGROV-ET; conditions: for GI50 / CC50: Homo sapiens, 48 h; for GI50: read-out: IGROV-ET GI50, SRB assay, 48 hours exposure; for CC50: read-out: IGROV-ET LC50, SRB assay, 48 hours exposure; for IGROV-ET TGI: SRB assay, 48 hours exposure
Method in brief: (§1)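 Human tumour cells in RPMI 1640 with 10% FBS were seeded at 5×10^3 cells/well, allowed to attach for 18 h, then exposed to samples at 10 to 10^−8 μg/ml for 48 h. Growth was measured by SRB staining after TCA fixation, with absorbance read at 490 nm in triplicate wells.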

[2] = tested on: LoVo-Dox; assay: Inhibition of cells growth by colorimetric (SRB) assay, LoVo-Dox; conditions: for GI50 / CC50: Homo sapiens, 48 h; for GI50: read-out: LOVO-DOX GI50, SRB assay, 48 hours exposure; for CC50: read-out: LOVO-DOX LC50, SRB assay, 48 hours exposure; for LOVO-DOX TGI: SRB assay, 48 hours exposure
Method in brief: as §1

[3] = tested on: LNCaP; assay: Inhibition of cells growth by colorimetric (SRB) assay, LNCaP; conditions: for GI50 / CC50: Homo sapiens, LNCaP, 48 h; for GI50: read-out: LN-caP GI50, SRB assay, 48 hours exposure; for CC50: read-out: LN-caP LC50, SRB assay, 48 hours exposure; for LN-caP TGI: SRB assay, 48 hours exposure
Method in brief: as §1

[4] = tested on: SK-BR-3; assay: Inhibition of cells growth by colorimetric (SRB) assay, SK-BR-3; conditions: for GI50 / CC50: Homo sapiens, SK-BR-3, 48 h; for GI50: read-out: SK-BR-3 GI50, SRB assay, 48 hours exposure; for CC50: read-out: SK-BR-3 LC50, SRB assay, 48 hours exposure; for SK-BR-3 TGI: SRB assay, 48 hours exposure
Method in brief: as §1

[5] = tested on: DU-145; assay: Inhibition of cells growth by colorimetric (SRB) assay, DU-145; conditions: for GI50 / CC50: Homo sapiens, DU-145, 48 h; for GI50: read-out: DU-145 GI50, SRB assay, 48 hours exposure; for CC50: read-out: DU-145 LC50, SRB assay, 48 hours exposure; for DU-145 TGI: SRB assay, 48 hours exposure
Method in brief: as §1

[6] = tested on: LoVo; assay: Inhibition of cells growth by colorimetric (SRB) assay, LoVo; conditions: for GI50 / CC50: Homo sapiens, LoVo, 48 h; for GI50: read-out: LOVO GI50, SRB assay, 48 hours exposure; for CC50: read-out: LOVO LC50, SRB assay, 48 hours exposure; for LOVO TGI: SRB assay, 48 hours exposure
Method in brief: as §1

[7] = tested on: PANC-1; assay: Inhibition of cells growth by colorimetric (SRB) assay, PANC-1; conditions: for GI50 / CC50: Homo sapiens, PANC-1, 48 h; for GI50: read-out: PANC-1 GI50, SRB assay, 48 hours exposure; for CC50: read-out: PANC-1 LC50, SRB assay, 48 hours exposure; for PANC-1 TGI: SRB assay, 48 hours exposure
Method in brief: as §1

[8] = tested on: A-549; assay: Inhibition of cells growth by colorimetric (SRB) assay, A-549; conditions: for GI50 / CC50: Homo sapiens, A549, 48 h
Method in brief: as §1

[9] = tested on: HeLa-APL; assay: Inhibition of cells growth by colorimetric (SRB) assay, HeLa-APL; conditions: for GI50 / CC50: Homo sapiens, 48 h; for GI50: read-out: HELA-APL GI50, SRB assay, 48 hours exposure; for CC50: read-out: HELA-APL LC50, SRB assay, 48 hours exposure; for HELA-APL TGI: SRB assay, 48 hours exposure
Source text: (§2) The finality of these assays is to interrupt the growth of a “in vitro” tumor cell culture by means a continued exhibition of the cells to the sample to be testing.
(§3) This form of the assay employs 96 well cell culture microplates of 9 mm diameter (Faircloth, 1988; Mosmann, 1983). Most of the cell lines are obtained from American Type Culture Collection (ATCC) derived from different human cancer types.
(§4) Cells are maintained in RPMI 1640 10% FBS, supplemented with 0.1 g/l penicillin and 0.1 g/l streptomycin sulphate and then incubated at 37° C., 5% CO2 and 98% humidity. For the experiments, cells were harvested from subconfluent cultures using trypsin and resuspended in fresh medium before plating.
(§5) Cells are seeded in 96 well microtiter plates, at 5×10^3 cells per well in aliquots of 195 μl medium, and they are allowed to attach to the plate surface by growing in drug free medium for 18 hours. Afterward, samples are added in aliquots of 5 μl in a ranging from 10 to 10^−8 μg/ml, dissolved in DMSO/EtOH/PBS (0.5:0.5:99). After 48 hours exposure, the antitumor effect are measured by the SRB methodology: cells are fixed by adding 50 μl of cold 50% (wt/vol) trichloroacetic acid (TCA) and incubating for 60 minutes at 4° C. Plates are washed with deionized water and dried. One hundred μl of SRB solution (0.4% wt/vol in 1% acetic acid) is added to each microtiter well and incubated for 10 minutes at room temperature. Unbound SRB is removed by washing with 1% acetic acid. Plates are air dried and bound stain is solubilized with Tris buffer. Optical densities are read on a automated spectrophotometric plate reader at a single wavelength of 490 nm.
(§6) The values for mean +/−SD of data from triplicate wells are calculated. Some parameters for cellular responses can be calculated: GI=growth inhibition, TGI=total growth inhibition (cytostatic effect) and LC=cell killing (cytotoxic effect).

[10] = tested on: SK-MEL-28; assay: Inhibition of cells growth by colorimetric (SRB) assay, SK-MEL-28; conditions: for GI50 / CC50: Homo sapiens, SK-MEL-28, 48 h; for GI50: read-out: MEL-28 GI50, SRB assay, 48 hours exposure; for CC50: read-out: MEL-28 LC50, SRB assay, 48 hours exposure; for MEL-28 TGI: SRB assay, 48 hours exposure
Method in brief: as §1

[11] = tested on: HT-29; assay: Inhibition of cells growth by colorimetric (SRB) assay, HT-29; conditions: for GI50 / CC50: Homo sapiens, HT-29, 48 h
Method in brief: as §1

[12] = tested on: K-562; assay: Inhibition of cells growth by colorimetric (SRB) assay, K-562; conditions: for GI50 / CC50: Homo sapiens, K562, 48 h; for GI50: read-out: K-562 GI50, SRB assay, 48 hours exposure; for CC50: read-out: K-562 LC50, SRB assay, 48 hours exposure; for K-562 TGI: SRB assay, 48 hours exposure
Method in brief: as §1

[13] = tested on: IGROV-1; assay: Inhibition of cells growth by colorimetric (SRB) assay, IGROV-1; conditions: for GI50 / CC50: Homo sapiens, IGROV-1, 48 h; for GI50: read-out: IGROV GI50, SRB assay, 48 hours exposure; for CC50: read-out: IGROV LC50, SRB assay, 48 hours exposure; for IGROV TGI: SRB assay, 48 hours exposure
Method in brief: as §1

[14] = tested on: HeLa; assay: Inhibition of cells growth by colorimetric (SRB) assay, HeLa; conditions: for GI50: Homo sapiens, HeLa, 48 h, read-out: HELA GI50, SRB assay, 48 hours exposure; for HELA TGI: SRB assay, 48 hours exposure
Source text: as §2, §3, §4, §5, §6

[15] = read-out: A-549 GI50, SRB assay, 48 hours exposure
[16] = read-out: A-549 LC50, SRB assay, 48 hours exposure
[17] = read-out: HT-29 GI50, SRB assay, 48 hours exposure
[18] = read-out: HT-29 LC50, SRB assay, 48 hours exposure

- GI50 [2]: 699 nM
- GI50 [3]: 127 nM
- GI50 [4]: 326 nM
- GI50 [5]: 64.6 nM
- GI50 [6]: 984 nM
- GI50 [7]: 220 nM
- GI50 [8, 15]: 249 nM
- GI50 [9]: 4.67 nM
- GI50 [10]: 767 nM
- GI50 [11, 17]: 176 nM
- GI50 [12]: 898 nM
- GI50 [14]: 2.52 nM
SMILES: CSc1nccc(-c2c3c(N)ccnc3n3c(N)nccc23)n1.Cl [Compound 93]
- GI50 [1]: 860 nM
- CC50 [1]: 2520 nM
- IGROV-ET TGI [1]: 2.09E−06
- CC50 [2]: 25200 nM
- LOVO-DOX TGI [2]: 1.68E−06
- CC50 [3]: 1670 nM
- LN-caP TGI [3]: 3.68E−07
- CC50 [4]: 15600 nM
- SK-BR-3 TGI [4]: 1.59E−06
- CC50 [5]: 2330 nM
- DU-145 TGI [5]: 4.16E−07
- CC50 [6]: 17400 nM
- LOVO TGI [6]: 3.84E−06
- CC50 [7]: 25200 nM
- PANC-1 TGI [7]: 2.78E−06
- CC50 [8, 16]: 5980 nM
- A-549 TGI ([8]; SRB assay, 48 hours exposure): 9.34E−07
- CC50 [9]: 29 nM
- HELA-APL TGI [9]: 6.03E−09
- CC50 [10]: 10700 nM
- MEL-28 TGI [10]: 3.71E−06
- CC50 [11, 18]: 25200 nM
- HT-29 TGI ([11]; SRB assay, 48 hours exposure): 1.32E−06
- CC50 [12]: 25200 nM
- K-562 TGI [12]: 1.57E−06
- GI50 [13]: 144 nM
- CC50 [13]: 25200 nM
- IGROV TGI [13]: 8.76E−07
- HELA TGI [14]: 5.10E−09

- GI50 [2]: 2040 nM
- GI50 [3]: 1080 nM
- GI50 [4]: 1230 nM
- GI50 [5]: 985 nM
- GI50 [6]: 1220 nM
- GI50 [7]: 4990 nM
- GI50 [8, 15]: 517 nM
- GI50 ([8]; read-out: GI50 A-549, SRB assay, 48 hours exposure): 5710 nM
- GI50 [9]: 5.94 nM
- GI50 [10]: 2190 nM
- GI50 ([11]; read-out: GI50 HT-29, SRB assay, 48 hours exposure): 14300 nM
- GI50 [11, 17]: 887 nM
- GI50 [12]: 12800 nM
- GI50 [14]: 7.16 nM
SMILES: CSc1nccc(-c2c3cccnc3n3c(NC(C)=O)nccc23)n1 [Compound 69]
- GI50 [1]: 7310 nM
- CC50 [1]: 28500 nM
- IGROV-ET TGI [1]: 2.18E−05
- CC50 [2]: 28500 nM
- LOVO-DOX TGI [2]: 9.79E−06
- CC50 [3]: 28500 nM
- LN-caP TGI [3]: 4.77E−06
- CC50 [4]: 24800 nM
- SK-BR-3 TGI [4]: 6.25E−06
- CC50 [5]: 23700 nM
- DU-145 TGI [5]: 4.59E−06
- CC50 [6]: 28500 nM
- LOVO TGI [6]: 7.28E−06
- CC50 [7]: 28500 nM
- PANC-1 TGI [7]: 1.91E−05
- CC50 [8, 16]: 2750 nM
- CC50 ([8]; read-out: LC50 A-549, SRB assay, 48 hours exposure): 28600 nM
- A-549 TGI ([8]; SRB assay, 48 hours exposure): 1.19E−06
- TGI A-549 ([8]; SRB assay, 48 hours exposure): 2.29E−05
- CC50 [9]: 380 nM
- HELA-APL TGI [9]: 2.45E−08
- CC50 [10]: 16400 nM
- MEL-28 TGI [10]: 6.51E−06
- CC50 [11, 18]: 28500 nM
- CC50 ([11]; read-out: LC50 HT-29, SRB assay, 48 hours exposure): 28600 nM
- HT-29 TGI ([11]; SRB assay, 48 hours exposure): 6.51E−06
- TGI HT-29 ([11]; SRB assay, 48 hours exposure): 2.86E−05
- CC50 [12]: 28500 nM
- K-562 TGI [12]: 2.85E−05
- GI50 [13]: 2130 nM
- CC50 [13]: 28500 nM
- IGROV TGI [13]: 8.53E−06
- HELA TGI [14]: 3.60E−08
